Data: patent US9056923B2, “Mimetic peptides derived from collagen type IV and their use for treating angiogenesis- and lymphagiogenesis-dependent diseases” (THE JOHNS HOPKINS UNIVERSITY, priority 2010, dated 2015)
Square brackets hold non-standard residues; d marks the D form. Ends that are not written are not given here. Peptide text beside a SMILES is read from it. Phe(4-Cl) = N[C@@H](Cc1ccc(Cl)cc1)C(=O)O; Nle = CCCC[C@H](N)C(=O)O; Abu = CC[C@H](N)C(=O)O

Experiments:
Type in all cases: cell-based, human
HUVEC [1] = conditions: for Activity in Proliferation: Yes/No summary
Procedure: Several assays were used to test the peptides discussed in the Examples herein. A colorimetric based proliferation assay using WST-1 (Roche, 11644807001) proliferation reagent was carried out using HUVEC cells. 2000 cells/well were plated in 96-well plates and allowed to adhere overnight. On the following day, the media was exchanged with fully supplemented media containing peptides or equivalent DMSO vehicle for the controls. Three days later the media containing the peptides was replaced with serum-free EBM-2 media containing WST-1 reagent and the plates were incubated for four hours as per the manufacturer's recommendations. Changes in color, due to the formazan dye resulted from the cleavage of the tetrazolium salt WST-1 by the mitochondrial succinate-tetrazolium reductase, were read on a Victor V fluorescence plate reader (Perkin Elmer, MA) by measuring the absorbance at 450 nm Dose response curves of percent live cells (in comparison to untreated cells but incubated in complete media with 0.2% DMSO) were created. Assays were performed in at least two independent replicates and each replicate was performed using three experimental triplicates.

HUVEC [2] = assay: HUVEC migration assay (RT-CIM); conditions: for Activity in Migration: Yes/No summary, active = inhibitory potential greater than 30%; for Migration Inhibition (50 uM): 50 uM peptide
Procedure: The inhibitory potential of the peptides was measured using a real time migration assay system based on electrical impedance (RT-CIM, ACEA Biosciences, CA). CIM 16 well plates (Roche, 05665817001) are composed of a top and bottom chamber separated by a microporous (8 μm) polycarbonate membrane. The membrane was coated with fibronectin (20 μg/mL), and 45,000 cells/well in serum free media with or without peptides were added to the top compartment. Media with chemoattractant (i.e., fully supplemented EBM-2) was added to the bottom compartment of the chamber and the plate was incubated at 37° C. for 20 hours. The sensors integrated on the bottom side of the membrane monitor and continuously record changes in impedance as the cells move through the membrane. The RT-CIM technology allows for easy quantification of cell migration by monitoring the cell index derived from the measured impedances. Assays were performed in at least two independent replicates and each replicate was performed using two experimental duplicates.

HUVEC [3] = conditions: HUVEC; for Adhesion Inhibition (100 uM): 100 uM peptide; for Activity in Adhesion: Yes/No summary, active = inhibitory potential greater than 30%
Procedure: Similar to the migration assays, the inhibition activity of the peptide in cellular adhesion was assessed using the RT-CIM technology. In this case, 25,000 cells/well were plated in 16 wells E-plates (Roche, Basel Switzerland) in the presence or absence of the peptide. The adhesion was monitored over time (3 hours) by measuring changes in the electrical impedance, which is a direct measure of the cells adhering on the electrodes. […] Assays were performed in at least two independent replicates and each replicate was performed using two experimental duplicates.

HUVEC [4] = assay: HUVEC tube formation assay on Matrigel; conditions: for Tube formation Inhibition (100 uM): 100 uM peptide; for Activity in Tube formation: Yes/No summary; for inhibition of tube formation: concentration not given
Procedure: The compounds also were tested for their ability to inhibit tube formation, a process critical in angiogenesis. Endothelial cells spontaneously form a network of tubes when plated on extracts of extracellular matrix. This in vitro assay combines aspects of adhesion and migration and it is routinely used in angiogenesis research (Oliveira-Ferrer et al., 2008). The ability to inhibit tube formation is a comprehensive assessment of the anti-angiogenic potential. The protocol was described by Arnaoutova et al. (2009) and it consists of plating HUVEC on top of basement membrane extract and after incubation at 37° C. the cells naturally rearrange themselves in a network of tubes. Thus, 50 μL/well of Matrigel (BD Biosciences, San Jose, Calif.) was plated in a cold 96 well plate and incubated at 37° C. for 30 min for polymerization. 15,000 cells/well were added to the top of the gel and incubated in complete media in the presence or absence of peptide for 19 hours. Images were captured using the CCD Sensicam mounted on a Nikon microscope (Eclipse T-100). Assays were performed in at least two independent replicates and each replicate was performed using three experimental replicates and one image of a randomly chosen field was acquired per well.

Molecule | inhibition of proliferation (HUVEC [1]; HUVEC) | Activity in Proliferation (HUVEC [1]; HUVEC) | Migration Inhibition (5 uM) (HUVEC [2]; 5 uM peptide) [%] | Activity in Migration (HUVEC [2]) | Adhesion Inhibition (100 uM) (HUVEC [3]) | Activity in Adhesion (HUVEC [3]) | Tube formation Inhibition (100 uM) (HUVEC [4]) | Activity in Tube formation (HUVEC [4]) | IC50 (HUVEC [1]) [µM] | Proliferation Inhibition (IC50 in uM) (HUVEC [1]; HUVEC, summary tables 2-4, 6, 7) | Migration Inhibition (50 uM) (HUVEC [2]) [%] | inhibition of tube formation (HUVEC [4])
LRRFSTMPFMFVNINNVVNF-NH2 [SP2027] | not affected | Yes | 27.02 | Yes | 96.75% | Yes | Complete | Yes | – | – | – | –
LRRFSTMPFMF [SP2004, LRRFSTMPFMF] | inactive | No | – | No | – | No | Inactive | No | > 100 | Inactive | – | –
LRRFSTMPFMFTNINV-NH2 [SP2029, LRRFSTMPFMFTNINV] | potent activity in inhibiting proliferation | Yes | – | Yes | 93.75% | Yes | Complete | Yes | – | – | 54.13 | Inhibition of tube formation
CC[C@H](NC(=O)[C@H](C)NC(=O)[C@H](CCSC)NC(=O)[C@H](Cc1ccccc1)NC(=O)[C@@H]1CCCN1C(=O)[C@H](CCSC)NC(=O)[C@@H](NC(=O)[C@H](CO)NC(=O)[C@H](Cc1ccccc1)NC(=O)[C@H](CCCNC(=N)N)NC(=O)[C@H](CCCNC(=N)N)NC(=O)[C@@H](N)CC(C)C)[C@@H](C)O)C(=O)N[C@@H](CC(N)=O)C(=O)N[C@H](C(=O)N[C@@H](CC(N)=O)C(=O)N[C@@H](CC(N)=O)C(=O)N[C@H](C(=O)N[C@@H](CC)C(=O)N[C@@H](CC(N)=O)C(=O)N[C@@H](Cc1ccccc1)C(N)=O)C(C)C)[C@@H](C)CC [SP2017, LRRFSTMPFMA(Abu)NINNV(Abu)NF] (H-LRRFSTMPFMA[Abu]NINNV[Abu]NF-NH2; N-terminus assumed) | – | – | – | – | 95.5%% | – | – | – | – | – | 100 | –
LRRFSTMPFMFTNINN-NH2 [SP2032, LRRFSTMPFMFTNINN] | potent activity in inhibiting proliferation | Yes | – | Yes | 63% | Yes | Complete | Yes | – | – | 32.45 | Inhibition of tube formation
CCCC[C@H](NC(=O)[C@H](Cc1ccccc1)NC(=O)[C@@H]1CCCN1C(=O)[C@H](CCSC)NC(=O)[C@@H](NC(=O)[C@H](CO)NC(=O)[C@H](Cc1ccccc1)NC(=O)[C@H](CCCNC(=N)N)NC(=O)[C@H](CCCNC(=N)N)NC(=O)[C@@H](N)CC(C)C)[C@@H](C)O)C(=O)N[C@@H](Cc1ccccc1)C(=O)N[C@@H](CC)C(=O)N[C@@H](CC(N)=O)C(=O)N[C@H](C(=O)N[C@@H](CC(N)=O)C(=O)N[C@@H](CC(N)=O)C(=O)N[C@H](C(=O)N[C@@H](CC)C(=O)N[C@@H](CC(N)=O)C(=O)N[C@@H](Cc1ccccc1)C(N)=O)C(C)C)[C@@H](C)CC [SP2018, LRRFSTMPF(Nle)F(Abu)NINNV(Abu)NF] (H-LRRFSTMPF[Nle]F[Abu]NINNV[Abu]NF-NH2; N-terminus assumed) | – | – | – | – | 90.9%% | – | – | – | – | – | 100 | –
CC[C@H](NC(=O)[C@H](Cc1ccccc1)NC(=O)[C@H](CCSC)NC(=O)[C@H](C)NC(=O)[C@@H]1CCCN1C(=O)[C@H](CCSC)NC(=O)[C@@H](NC(=O)[C@H](CO)NC(=O)[C@H](Cc1ccccc1)NC(=O)[C@H](CCCNC(=N)N)NC(=O)[C@H](CCCNC(=N)N)NC(=O)[C@@H](N)CC(C)C)[C@@H](C)O)C(=O)N[C@@H](CC(N)=O)C(=O)N[C@H](C(=O)N[C@@H](CC(N)=O)C(=O)N[C@@H](CC(N)=O)C(=O)N[C@H](C(=O)N[C@@H](CC)C(=O)N[C@@H](CC(N)=O)C(=O)N[C@@H](Cc1ccccc1)C(N)=O)C(C)C)[C@@H](C)CC [SP2015, LRRFSTMPAMF(Abu)NINNV(Abu)NF] (H-LRRFSTMPAMF[Abu]NINNV[Abu]NF-NH2; N-terminus assumed) | – | – | – | – | 96% | – | Complete | – | – | – | 100 | significant inhibition of tube formation
LRRFSTMPFMFSNINNVSNF-NH2 [SP2022] | not affected | Yes | – | Yes | 96.49% | Yes | – | Yes | – | – | – | –
LRRFSTMPFMFININN-NH2 [SP2033, LRRFSTMPFMFININN] | potent activity in inhibiting proliferation | Yes | – | Yes | 94% | Yes | Complete | Yes | – | – | 42.01 | Inhibition of tube formation
LRRFSTMPFMFGNINNVGNF-NH2 [SP2002] | – | – | – | – | – | – | Complete | – | 31.4 | – | 87.9 | –
CC[C@H](NC(=O)[C@H](Cc1ccccc1)NC(=O)[C@H](C)NC(=O)[C@H](Cc1ccccc1)NC(=O)[C@@H]1CCCN1C(=O)[C@H](CCSC)NC(=O)[C@@H](NC(=O)[C@H](CO)NC(=O)[C@H](Cc1ccccc1)NC(=O)[C@H](CCCNC(=N)N)NC(=O)[C@H](CCCNC(=N)N)NC(=O)[C@@H](N)CC(C)C)[C@@H](C)O)C(=O)N[C@@H](CC(N)=O)C(=O)N[C@H](C(=O)N[C@@H](CC(N)=O)C(=O)N[C@@H](CC(N)=O)C(=O)N[C@H](C(=O)N[C@@H](CC)C(=O)N[C@@H](CC(N)=O)C(=O)N[C@@H](Cc1ccccc1)C(N)=O)C(C)C)[C@@H](C)CC [SP2016, LRRFSTMPFAF(Abu)NINNV(Abu)NF] (H-LRRFSTMPFAF[Abu]NINNV[Abu]NF-NH2; N-terminus assumed) | – | – | – | – | 96% | – | – | – | – | – | 99.6 | –
CC[C@H](NC(=O)[C@H](Cc1ccc(Cl)cc1)NC(=O)[C@H](CCSC)NC(=O)[C@H](Cc1ccccc1)NC(=O)[C@@H]1CCCN1C(=O)[C@H](CCSC)NC(=O)[C@@H](NC(=O)[C@H](CO)NC(=O)[C@H](Cc1ccccc1)NC(=O)[C@H](CCCNC(=N)N)NC(=O)[C@H](CCCNC(=N)N)NC(=O)[C@@H](N)CC(C)C)[C@@H](C)O)C(=O)N[C@@H](CC(N)=O)C(=O)N[C@H](C(=O)N[C@@H](CC(N)=O)C(=O)N[C@@H](CC(N)=O)C(=O)N[C@H](C(=O)N[C@@H](CC)C(=O)N[C@@H](CC(N)=O)C(=O)N[C@@H](Cc1ccccc1)C(N)=O)C(C)C)[C@@H](C)CC [SP2019, LRRFSTMPFM(4-ClPhe)(Abu)NINNV(Abu)NF] (H-LRRFSTMPFM[Phe(4-Cl)][Abu]NINNV[Abu]NF-NH2; N-terminus assumed) | – | – | – | – | 95.9% | – | – | – | – | – | 98 | –
